Laboratory results taken from ChEMBL document CHEMBL1275579, “Plasmid-mediated 16S rRNA methylases in aminoglycoside-resistant Enterobacteriaceae isolates in Shanghai, China” (2009).

What was measured:
Enterobacteriaceae = test: Antibacterial activity against 16S rRNA methylase and beta-lactamase producing Enterobacteriaceae by CLSI method; format: functional
Enterobacter cloacae = test: Antibacterial activity against armA-positive Enterobacter cloacae expressing KPC-2 beta-lactamase by CLSI method; format: functional

Row | Molecule | MIC50 (Enterobacteriaceae) [µg/mL] | MIC90 (Enterobacteriaceae) [µg/mL] | MIC (Enterobacter cloacae) [µg/mL]
1 | NCC[C@H](O)C(=O)N[C@@H]1C[C@H](N)[C@@H](O[C@H]2O[C@H](CN)[C@@H](O)[C@H](O)[C@H]2O)[C@H](O)[C@H]1O[C@H]1O[C@H](CO)[C@@H](O)[C@H](N)[C@H]1O [AMIKACIN] | > 256 | > 256 | 
2 | C[C@@H](O)[C@H]1C(=O)N2C(C(=O)O)=C(SCCNC=N)C[C@H]12 [IMIPENEM ANHYDROUS] |  |  | > 32
3 | GENTAMICIN | > 256 | > 256 | 
